From the supplement of paper PMC6470124

What was measured:
[1] = absolute recovery over mixed-bed multilayer solid-phase extraction; higher = better recovery; conditions: enrichment method: SPE
Summary of the method: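 Wastewater (100–250 mL, pH 6.5, glass-fibre filtered) and unfiltered nanopure water (1000 mL) were extracted on a three-layer mixed-bed cartridge, with standards spiked before extraction, after it, or not at all at 1000 ng/L and 200 ng/L respectively, apart from some classes. Internal standards were then added for liquid chromatography with high-resolution tandem mass spectrometry in both ionisation modes. Absolute recovery compares background-corrected response ratios of pre- and post-spiked samples across at least two replicates.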

[2] = absolute recovery over vacuum-assisted evaporative concentration; higher = better recovery; conditions: enrichment method: VEC
Summary of the method: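 Absolute recovery was calculated as (response ratio pre − unspiked)/(post − unspiked) × 100 from averages of ≥ 2 replicates. Influent (6 mL), effluent (15 mL), and surface and nanopure water (60 mL) samples were spiked with standards before concentration, after concentration, or not at all, at 200 ng/L for nanopure and surface water or 1000 ng/L for wastewater, with class- and compound-specific adjustments. Samples were evaporated at 55 °C and 20 mbar to about 0.3 mL, made up to 0.4 mL and centrifuged, then internal standards were added before LC-HRMS/MS analysis.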

[3] = LC retention time (Atlantis T3, 5-95% MeOH gradient, 0.1% formic acid); higher = more retained / less polar
Summary of the method: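 Retention times were recorded for reference standards on a polar reversed-phase C18 column. The standards were of purity ≥ 95%, and the Atlantis T3 column (3 × 150 mm, 3 μm) was run at 0.3 mL/min with a gradient from 5 to 95% methanol over 17.5 min, both water and methanol containing 0.1% formic acid. Detection used high-resolution tandem mass spectrometry on a QExactive Plus, with positive and negative electrospray in separate runs, and peaks were integrated in TraceFinder (5 ppm tolerance, at least three points per peak) before being checked by hand.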

| Compound | absolute recovery ([1]; nanopure water) [%] | absolute recovery ([1]; surface water) [%] | absolute recovery ([1]; wastewater effluent) [%] | absolute recovery ([1]; wastewater influent) [%] | absolute recovery ([2]; wastewater effluent) [%] | absolute recovery ([2]; wastewater influent) [%] | LC retention time [3] [min] |
| --- | --- | --- | --- | --- | --- | --- | --- |
| COc1ccc(CN(CC[NH+](C)C)c2ccccn2)cc1 [Pyrilamine] | 83.7 | 87 | 87.3 | 88.2 | 94 | 99.9 | 18.4 |
| COC(=O)[N-]S(=O)(=O)c1ccc(N)cc1 [Asulam] | 101 | 34.2 | 42.6 | 43.9 | 95.8 | 88.4 | 10.5 |
| CCOC(=O)C1=CC(OC(CC)CC)C(NC(C)=O)C([NH3+])C1 (configuration not stated) [Oseltamivir] | 69.9 | 77.5 | 77.3 | 80.4 | 101 | 107 | 14.7 |
| CN1CCN(C)C1=O [1-3-Dimethyl-2-imidazolidinon] | 26 | 29.7 | 29.2 | 56.1 | 96.5 | 104 | 10.1 |
| C=CS(=O)(=O)[O-] [Vinylsulfonic-acid] | 1.5 |  |  |  | 103 | 108 | 3.84 |
| Cc1cccc(C)c1N(Cn1cccn1)C(=O)CS(=O)(=O)[O-] [Metazachlor-ESA] | 98.7 | 95.6 | 96.8 | 97.6 | 102 | 104 | 17.5 |
| O=c1[nH]sc2ccccc12 [Benzisothiazolin-3-on (=BIT)] | 79.3 | 76.3 | 72 | 142 | 86.7 | 22.6 | 14.2 |
| O=C1C=CC(=C2NC=CNC2=O)C=C1 [Amoxicillin-EP-Impurity-F] | 76.8 | 79.4 | 82.1 | 91.7 | 105 | 107 | 12.3 |
| C[NH+](C)C(C)(C)CO [2-(Dimethylamino)-2-methyl-1-propanol] | 45.5 | 7.1 | 10.1 |  | 108 |  | 3.5 |
| CCC(C)C(=O)OC1CC(O)C=C2C=CC(C)C(CCC(O)CC(O)CC(=O)[O-])C21 (configuration not stated) [Pravastatin] | 92.4 | 91.2 | 94 | 95.1 | 99.2 | 103 | 18.4 |
| CCCS(=O)(=O)[O-] [1-Propanesulfonate] | 4.8 | 0.3 | 0.9 | 1.7 | 107 | 102 | 6.6 |
| Cc1ccc(-c2c(Cl)nc(C#N)n2S(=O)(=O)N(C)C)cc1 [Cyazofamid] | 66.4 | 64.6 | 58 | 63.2 | 99.5 | 104 | 20.3 |
| Cc1nnc(-c2ccccc2)c(=O)n1N [Metamitron] | 97.1 |  | 95.8 | 97.5 | 106 | 98.5 | 14.3 |
| C1=Cc2ccccc2Nc2ccccc21 [Iminostilben] | 90.1 | 82.6 | 79.4 | 89 | 22.9 | 37.9 | 20 |
| CC([NH3+])C12CC3CC(CC(C3)C1)C2 (configuration not stated) [Rimantadin] | 71.9 | 76.1 | 72.9 | 71.4 | 105 | 112 | 14.6 |
| COC(=O)c1csc(C)c1S(=O)(=O)[N-]C(=O)n1nc(OC)n(C)c1=O [Thiencarbazone] | 104 | 93.9 | 92.6 | 87 | 110 | 106 | 16.5 |
| CCC(C(N)=O)N1CCCC1=O (configuration not stated) [Levetiracetam] | 65.6 | 60.2 | 56.3 |  | 105 |  | 10.9 |
| COc1cc(OC)n2nc(S(=O)(=O)Nc3c(Cl)ccc(C)c3Cl)nc2n1 [Metosulam] | 98.1 | 96.2 | 99.7 | 92.6 | 98.6 | 106 | 17 |
| CCC(C)OC(=O)N1CCCCC1CCO (configuration not stated) [Picaridin (=Icaridin)] | 97.2 | 91.8 | 93.9 | 96.2 | 94.9 | 99.4 | 19 |
| OC(Cn1cncn1)(Cn1cncn1)c1ccc(F)cc1F [Fluconazol] | 100 | 92.8 | 96.9 | 96.1 | 105 | 105 | 14.2 |
| CN(C)c1nc(=O)n(C2CCCCC2)c(=O)n1C [Hexazinon] | 96.4 | 93.7 | 94.3 | 88.8 | 106 | 92.6 | 17.2 |
| CC1CC2C3CCC4=CC(=O)C=CC4(C)C3(F)C(O)CC2(C)C1(O)C(=O)CO (configuration not stated) [Dexamethason] | 92.3 | 86.2 | 91.2 | 94 | 106 | 105 | 18.7 |
| CC(C)(C)C(O)(CCc1ccc(Cl)cc1)Cn1cncn1 (configuration not stated) [Tebuconazol] | 98.5 | 94.7 | 96 | 94.3 | 106 | 99.8 | 20.9 |
| CCOC(=O)OC1=C(c2cc(C)ccc2C)C(=O)NC12CCC(OC)CC2 (configuration not stated) [Spirotetramat] | 12 | 16.9 | 29.9 | 27 | 61.7 | 54.9 | 20 |
| CC(C)Nc1nc(N)nc(Cl)n1 [Atrazin-Desethyl] | 92.5 | 96.9 | 92.1 | 91.6 | 102 | 101 | 15.3 |
| Nc1ccn(C2OC(CO)C(O)C2O)c(=O)n1 (configuration not stated) [Cytarabin] | 103 | 112 | 104 | 64.6 | 89.3 |  | 15.6 |
| COC(=O)c1ccc(CNS(C)(=O)=O)cc1S(=O)(=O)[N-]C(=O)Nc1nc(OC)cc(OC)n1 [Mesosulfuron-methyl] | 101 | 95 | 96.2 | 98.7 | 111 | 101 | 18 |

| Compound | absolute recovery ([1]; nanopure water) [%] | absolute recovery ([1]; surface water) [%] | absolute recovery ([1]; wastewater effluent) [%] | absolute recovery ([1]; wastewater influent) [%] | absolute recovery ([2]; wastewater effluent) [%] | absolute recovery ([2]; wastewater influent) [%] | LC retention time [3] [min] |
| --- | --- | --- | --- | --- | --- | --- | --- |
| CCCCOc1cc(C(=O)NCC[NH+](CC)CC)c2ccccc2n1 [Dibucaine] | 99.8 | 81.6 | 93 |  | 92 | 136 | 16.2 |
| C[NH+](C)CCC(c1ccccc1)c1ccccn1 (configuration not stated) [Pheniramine] | 87.9 | 93.7 | 91.7 | 86.8 | 113 | 87.2 | 11 |
| O=C1Nc2ccc(Cl)cc2C(c2ccccc2)=NC1O (configuration not stated) [Oxazepam] | 99.5 | 98.7 | 91.9 | 93.9 | 104 | 98.7 | 18.4 |
| COc1nc(NC(=O)[N-]S(=O)(=O)c2ccccc2C(F)(F)F)nc(C(F)(F)F)n1 [Tritosulfuron] | 97 | 93.4 | 90.7 | 103 | 94.7 | 101 | 19.6 |
| CCCC1COC(Cn2cncn2)(c2ccc(Cl)cc2Cl)O1 (configuration not stated) [Propiconazol] | 97.2 | 94.8 | 91.8 |  | 104 | 101 | 21.1 |
| CCCCCCCCCCCC[N+](C)(C)C [Dodecyltrimethylammonium] | 84.2 | 114 | 69.5 | 33.9 | 99.1 |  | 17.9 |
| CCOC(=O)C1(c2ccccc2)CC[NH+](C)CC1 [Meperidine] | 88.6 | 87.8 | 86.8 | 96.6 | 99.2 | 103 | 12.8 |
| Cc1ncc2n1-c1ccc(Cl)cc1C(c1ccccc1F)=NC2 [Midazolam] | 87.5 | 90.5 | 89.6 | 83 | 102 | 106 | 14.5 |
| Clc1cccc(N2CC[NH2+]CC2)c1 [1-(3-Chlorophenyl)-piperazine] | 70.3 | 74.7 | 68.1 | 79.3 | 103 | 99.6 | 12.6 |
| Cn1sc(Cl)cc1=O [5-Chloro-2-methyl-4-isothiazolin-3-on (=CMI)] | 85.1 | 56.7 | 66.5 |  | 65.2 |  | 12.4 |
| CC(C)c1ccc(NC(N)=O)cc1 [Isoproturon-didemethyl (=1-(4-Isoprophenyl)urea)] | 99.9 | 94.1 | 95.4 | 95.4 | 102 | 103 | 17.7 |
| O=C(NC(=O)c1c(F)cccc1F)Nc1ccc(Cl)cc1 [Diflubenzuron] | 101 | 138 | 114 | 67.9 | 112 | 147 | 20.5 |
| CC(C)OC(=O)NC(C(=O)NC(C)c1nc2ccc(F)cc2s1)C(C)C (configuration not stated) [Benthiavalicarb-isopropyl] | 94.2 | 94.6 | 95.3 | 94.3 | 108 | 102 | 19.7 |
| COC(=O)C1C2CC3c4[nH]c5cc(OC)ccc5c4CC[NH+]3CC2CC(OC(=O)c2cc(OC)c(OC)c(OC)c2)C1OC (configuration not stated) [Reserpin] | 64.2 | 81.9 | 80.1 | 64.2 | 21.6 | 64.3 | 15.9 |
| CCCCc1c(C)nc(NCC)nc1OS(=O)(=O)N(C)C [Bupirimate] | 83.8 | 85.1 | 93.3 | 74.8 | 105 | 117 | 19.3 |
| O=c1ccn(C2OC(CO)C(O)C2(F)F)c(=O)[nH]1 (configuration not stated) [2-2-Difluorodeoxyuridin] | 88.2 |  | 95.1 |  | 122 | 88.2 | 9.37 |
| CCCC(NC(C)C(=O)N1C(C(=O)[O-])CC2CCCCC21)C(=O)OCC (configuration not stated) [Perindopril] | 97.7 | 88.8 | 91.5 | 138 | 95 | 96.1 | 15.5 |
| CC[N+]([O-])(CC)CC(=O)Nc1c(C)cccc1C [Lidocaine-N-Oxide] | 90.4 | 94.7 | 90.6 | 98.9 | 102 | 105 | 12.2 |
| O=C([O-])COc1ccc(Cl)cc1Cl [2-4-D] | 95.6 | 94 | 93.5 | 91.2 | 103 | 106 | 19.3 |
| CCCCCC(C)OC(=O)COc1ccc(Cl)c2cccnc12 (configuration not stated) [Cloquintocet-mexyl] | 56.8 | 67.2 | 70.9 |  | 111 | 103 | 22.4 |
| CC(C)N(C(=O)CS(=O)(=O)[O-])c1ccc(F)cc1 [Flufenacet-ESA] | 89.4 | 84 | 96.3 | 96.4 | 112 | 109 | 21.4 |
| CN(C)C(=[NH2+])NC(N)=[NH2+] [Metformin] | 88.2 |  |  |  | 118 |  | 3.25 |
| CC1=NNC(=O)N(N=Cc2cccnc2)C1 [Pymetrozin] | 118 | 112 | 106 | 97 | 107 | 110 | 8.65 |
| CCC1(c2cccc(O)c2)CCCC[NH+](C)C1 (configuration not stated) [Meptazinol] | 90.6 | 92.9 | 86.5 | 91.9 | 110 | 103 | 12.1 |
| CCNC(=O)NC(=O)C(C#N)=NOC [Cymoxanil] | 98.4 | 83.5 | 87.9 | 115 | 53.4 | 69.8 | 15.2 |
| CC(CCC(=O)[O-])C1CCC2C3C(O)CC4CC(O)CCC4(C)C3CCC12C (configuration not stated) [Ursodeoxycholic-acid] | 73.8 |  | 79.2 |  | 97 |  | 21.1 |
